What was measured:
[1] = biological target: Spirulina subsalsa PPO CyPPO16 (SEQ ID NO: 1) variant A162L (MBP fusion); assay: PPO enzyme inhibition (IC50), MBP-fused PPO; assay type: biochemical; settings: 50 μM protoporphyrinogen IX, pH 8.0, room temperature, 30 min
Procedure: (§1) Thus, PPO proteins of wild type and variants were expressed as fused to MBP and were used for experiments.
(§2) The following process for purification of PPO protein was performed in a 4° C. cold room. Amylose resin (NEB) was packed to 1.5×15 cm column (Bio-Rad, Econo Columns 1.5×15 cm, glass chromatography column, max. vol), and the obtained protein extracts were loaded to the column at a flow rate of 0.2 ml/min. The column was washed with 3 column volumes of buffer and the presence of protein in the washing solution was examined. When the protein was no longer detected, the washing procedure was terminated. Then, the MBP-PPO protein was eluted with approximately 2 column volumes of buffer containing 20 mM maltose. The protein concentration of each eluent was determined and the elution was stopped when the protein was no longer detected. Ten microliter of each fraction was investigated for protein quantification and SDS-PAGE analysis. The highly pure fractions of PPO protein variants were used for the enzyme assay.
(§3) Since protoporphyrinogen IX, a substrate of PPO protein, was not commercially available, it was chemically synthesized in the laboratory. Overall process was performed in dark under nitrogen stream. […] of protoporphyrin IX was dissolved in 20 ml of 20% (v/v) EtOH, and stirred under dark condition for 30 minutes. The obtained protoporphyrin IX solution was put into a 15 ml screw tube in an amount of 800 μl, and flushed with nitrogen gas for 5 minutes. To this, 1.5 g of sodium amalgam was added and vigorously shaken for 2 minutes. The lid was opened to exhaust hydrogen gas in the tube. Thereafter, the lid was closed and incubated for 3 minutes. The protoporphyrinogen IX solution was filtered using syringe and cellulose membrane filter. […] To determine the enzyme activity of PPO protein, a reaction mixture was prepared with the following composition (based on 10 ml): 50 mM Tris-Cl (pH 8.0); 50 mM NaCl; 0.04% (v/v) Tween 20; 40 mM glucose (0.072 g); 5 units glucose oxidase (16.6 mg); and 10 units catalase (1 μl).
(§4) Hundred and eighty microliters of a reaction mixture containing the purified PPO protein were placed in 96 well plates and 20 μl of […] were added. […] The reaction proceeded at room temperature for 30 min and the fluorescence of protoporphyrin IX was measured using Microplate reader (Sense, Hidex) (excitation: 405 nm; emission: 633 nm). […] To this, 2.7 N HCl was added, and the absorbance at 408 nm was measured. A standard curve was generated using standard protoporphyrin IX, and PPO activity was measured by calibration of protoporphyrin IX using the standard curve of protoporphyrin IX.

[2] = biological target: Spirulina subsalsa PPO CyPPO16 (SEQ ID NO: 1) variant V160C (MBP fusion); assay: PPO enzyme inhibition (IC50), MBP-fused PPO; assay type: biochemical; settings: 50 μM protoporphyrinogen IX, pH 8.0, room temperature, 30 min
Procedure: as §1, §2, §3, §4

[3] = biological target: Spirulina subsalsa PPO CyPPO16 (SEQ ID NO: 1) variant L327T (MBP fusion); assay: PPO enzyme inhibition (IC50), MBP-fused PPO; assay type: biochemical; settings: 50 μM protoporphyrinogen IX, pH 8.0, room temperature, 30 min
Procedure: as §1, §2, §3, §4

[4] = biological target: Spirulina subsalsa PPO CyPPO16, wild type, SEQ ID NO: 1 (MBP fusion); assay: PPO enzyme inhibition (IC50), MBP-fused PPO; assay type: biochemical; settings: 50 μM protoporphyrinogen IX, pH 8.0, room temperature, 30 min
Procedure: as §1, §2, §3, §4

[5] = biological target: Spirulina subsalsa PPO CyPPO16 (SEQ ID NO: 1) variant V305M (MBP fusion); assay: PPO enzyme inhibition (IC50), MBP-fused PPO; assay type: biochemical; settings: 50 μM protoporphyrinogen IX, pH 8.0, room temperature, 30 min
Procedure: as §1, §2, §3, §4

[6] = biological target: Spirulina subsalsa PPO CyPPO16 (SEQ ID NO: 1) variant R85A (MBP fusion); assay: PPO enzyme inhibition (IC50), MBP-fused PPO; assay type: biochemical; settings: 50 μM protoporphyrinogen IX, pH 8.0, room temperature, 30 min
Procedure: as §1, §2, §3, §4

[7] = tested on: CyPPO16 wild type (SEQ ID NO: 1) in PPO-deficient E. coli BT3(ΔPPO); assay type: cell-based; settings: LB agar, 37° C., light, 16 to 20 hours
Procedure: (§5) The mutated CyPPO gene obtained from the Example 2 was transformed to BT3 (ΔPPO) strain which is deficient of PPO activity and cultured in LB media with PPO-inhibiting herbicide, thereby examining whether growth of transformed BT3 was not inhibited.
(§6) BT3 competent cells were transformed with the pET303-CyPPO16 and pET303-CyPPO17 plasmids and those with a mutation(s) constructed in Example 2 respectively, and were cultured in LB agar media containing carbenicillin (Gold Biotechnology, Co., Ltd.).
(§7) Single colony of E. coli transformed with each CyPPO gene was cultured in 3 ml of LB broth containing carbenicillin overnight, and then was subcultured until absorbance (0D600) reached 0.5 to 1. Then, it was diluted with LB broth to OD600=0.5. Again, the diluted solution was serially diluted 4 times by a factor of one tenth.
(§8) The LB agar media (LB 25 g/l, Bacto agar 15 g/l) containing carbenicillin (100 μg/ml) and 0 to 4,000 μM of various herbicides dissolved in DMSO was prepared. Next, 10 μl of each diluted solution was dropped on the plate and cultured at 37° C. under light (Tables 7 and 9, FIGS. 2 to 6, and 18 to 22) or dark (Tables 8 and 10, FIGS. 7 to 17, and 23 to 33) for 16 to 20 hours. Then, extent of tolerance was evaluated.
(§9) The extent of herbicide tolerance of the mutated genes was evaluated by comparing that of mutated genes with that of wild type. The relative tolerance was represented with “+” as a factor of 10 times. Evaluation result was listed in Tables 7 to10 and FIGS. 2 to 33:
(§10) In Tables 7 to 10, tolerance level was presented as of tolerance of wild type and of variants equivalent to that of wild type, and was done as ‘+’ per each 10 fold resistance until ‘+++++’ as maximal resistance. (Tolerance level was evaluated by relative growth level of variants to that of wild type in the media containing highest concentration of herbicide; ‘+’=1-9 fold higher tolerance, ‘++’=10-99 fold higher tolerance, ‘+++’=100-999 fold higher tolerance, ‘++++’=1,000-9,999 fold higher tolerance, ‘+++++’=more than 10,000 fold higher tolerance)

[8] = tested on: CyPPO17 wild type (SEQ ID NO: 3) in PPO-deficient E. coli BT3(ΔPPO); assay type: cell-based; settings: LB agar, 37° C., light, 16 to 20 hours
Procedure: as §5, §6, §7, §8, §9, §10

[9] = tested on: CyPPO17 (SEQ ID NO: 3) variant A166C in PPO-deficient E. coli BT3(ΔPPO); assay type: cell-based; settings: LB agar, 37° C., light, 16 to 20 hours
Procedure: as §5, §6, §7, §8
(§11) The extent of herbicide tolerance of the mutated genes was evaluated by comparing that of mutated genes with that of wild type. The relative tolerance was represented with “+” as a factor of 10 times.
(§12) In Tables 7 to 10, tolerance level was presented as of tolerance of wild type and of variants equivalent to that of wild type, and was done as ‘+’ per each 10 fold resistance until ‘+++++’ as maximal resistance.

[10] = tested on: CyPPO17 (SEQ ID NO: 3) variant F359C in PPO-deficient E. coli BT3(ΔPPO); assay type: cell-based; settings: LB agar, 37° C., light, 16 to 20 hours
Procedure: as §5, §6, §7, §8, §11, §12

[11] = tested on: CyPPO16 (SEQ ID NO: 1) variant F360I in PPO-deficient E. coli BT3(ΔPPO); assay type: cell-based; settings: LB agar, 37° C., light, 16 to 20 hours
Procedure: as §5, §6, §7, §8, §11, §12

[12] = tested on: CyPPO16 (SEQ ID NO: 1) variant F360L in PPO-deficient E. coli BT3(ΔPPO); assay type: cell-based; settings: LB agar, 37° C., light, 16 to 20 hours
Procedure: as §5, §6, §7, §8, §11, §12

[13] = tested on: CyPPO17 (SEQ ID NO: 3) variant F359L in PPO-deficient E. coli BT3(ΔPPO); assay type: cell-based; settings: LB agar, 37° C., light, 16 to 20 hours
Procedure: as §5, §6, §7, §8, §11, §12

[14] = tested on: CyPPO16 (SEQ ID NO: 1) variant A162C in PPO-deficient E. coli BT3(ΔPPO); assay type: cell-based; settings: LB agar, 37° C., light, 16 to 20 hours
Procedure: as §5, §6, §7, §8, §11, §12

[15] = tested on: CyPPO16 (SEQ ID NO: 1) variant A162L in PPO-deficient E. coli BT3(ΔPPO); assay type: cell-based; settings: LB agar, 37° C., light, 16 to 20 hours
Procedure: as §5, §6, §7, §8, §11, §12

[16] = tested on: CyPPO17 (SEQ ID NO: 3) variant F359I in PPO-deficient E. coli BT3(ΔPPO); assay type: cell-based; settings: LB agar, 37° C., light, 16 to 20 hours
Procedure: as §5, §6, §7, §8, §11, §12

[17] = tested on: CyPPO16 (SEQ ID NO: 1) variant F360C in PPO-deficient E. coli BT3(ΔPPO); assay type: cell-based; settings: LB agar, 37° C., light, 16 to 20 hours
Procedure: as §5, §6, §7, §8, §11, §12

[18] = tested on: CyPPO17 (SEQ ID NO: 3) variant A166L in PPO-deficient E. coli BT3(ΔPPO); assay type: cell-based; settings: LB agar, 37° C., light, 16 to 20 hours
Procedure: as §5, §6, §7, §8, §11, §12

[19] = tested on: CyPPO17 (SEQ ID NO: 3) variant V304M in PPO-deficient E. coli BT3(ΔPPO); assay type: cell-based; settings: LB agar, 37° C., light, 16 to 20 hours
Procedure: as §5, §6, §7, §8, §11, §12

[20] = tested on: CyPPO17 (SEQ ID NO: 3) variant F359M in PPO-deficient E. coli BT3(ΔPPO); assay type: cell-based; settings: LB agar, 37° C., light, 16 to 20 hours
Procedure: as §5, §6, §7, §8, §11, §12

[21] = tested on: CyPPO16 (SEQ ID NO: 1) variant V305M in PPO-deficient E. coli BT3(ΔPPO); assay type: cell-based; settings: LB agar, 37° C., light, 16 to 20 hours
Procedure: as §5, §6, §7, §8, §11, §12

[22] = tested on: CyPPO16 (SEQ ID NO: 1) variant F360V in PPO-deficient E. coli BT3(ΔPPO); assay type: cell-based; settings: LB agar, 37° C., light, 16 to 20 hours
Procedure: as §5, §6, §7, §8, §11, §12

[23] = tested on: CyPPO16 (SEQ ID NO: 1) variant F360M in PPO-deficient E. coli BT3(ΔPPO); assay type: cell-based; settings: LB agar, 37° C., light, 16 to 20 hours
Procedure: as §5, §6, §7, §8, §11, §12

Structure (SMILES)	IC50 [1]	IC50 [2]	IC50 [3]	IC50 [4]	IC50 [5]	IC50 [6]	Herbicide tolerance (relative to wild type) [7]	Herbicide tolerance (relative to wild type) [8]	Herbicide tolerance (relative to wild type) [9]	Herbicide tolerance (relative to wild type) [10]	Herbicide tolerance (relative to wild type) [11]	Herbicide tolerance (relative to wild type) [12]	Herbicide tolerance (relative to wild type) [13]	Herbicide tolerance (relative to wild type) [14]	Herbicide tolerance (relative to wild type) [15]	Herbicide tolerance (relative to wild type) [16]	Herbicide tolerance (relative to wild type) [17]	Herbicide tolerance (relative to wild type) [18]	Herbicide tolerance (relative to wild type) [19]	Herbicide tolerance (relative to wild type) [20]	also measured
Cc1nn(-c2cc(NS(C)(=O)=O)c(Cl)cc2Cl)c(=O)n1C(F)F [sulfentrazone]	1100 nM	584 nM	1830 nM	245 nM	305 nM	1040 nM															
C#CCN1C(=O)COc2cc(F)c(N3C(=O)C4=C(CCCC4)C3=O)cc21 [flumioxazin]	578 nM	57 nM	780 nM	14 nM	38 nM	59 nM															
O=C(O)c1cc(Oc2ccc(C(F)(F)F)cc2Cl)ccc1[N+](=O)[O-] [acifluorfen]							−	−	+++ (100-999 fold higher tolerance)	+ (1-9 fold higher tolerance)	+ (1-9 fold higher tolerance)	+ (1-9 fold higher tolerance)	+ (1-9 fold higher tolerance)	++ (10-99 fold higher tolerance)	++ (10-99 fold higher tolerance)	+ (1-9 fold higher tolerance)	++ (10-99 fold higher tolerance)	+++ (100-999 fold higher tolerance)	+++ (100-999 fold higher tolerance)	+++ (100-999 fold higher tolerance)	Herbicide tolerance (relative to wild type) [21]: ++ (10-99 fold higher tolerance); Herbicide tolerance (relative to wild type) [22]: + (1-9 fold higher tolerance); Herbicide tolerance (relative to wild type) [23]: + (1-9 fold higher tolerance)
CCOC(=O)COc1cc(-c2nn(C)c(OC(F)F)c2Cl)c(F)cc1Cl [pyraflufen-ethyl]							−	−	++ (10-99 fold higher tolerance)	+ (1-9 fold higher tolerance)	++ (10-99 fold higher tolerance)	++ (10-99 fold higher tolerance)	++ (10-99 fold higher tolerance)	+++ (100-999 fold higher tolerance)	+++ (100-999 fold higher tolerance)	++ (10-99 fold higher tolerance)	+++ (100-999 fold higher tolerance)	++ (10-99 fold higher tolerance)	+ (1-9 fold higher tolerance)	++ (10-99 fold higher tolerance)	Herbicide tolerance (relative to wild type) [21]: +++ (100-999 fold higher tolerance); Herbicide tolerance (relative to wild type) [22]: ++ (10-99 fold higher tolerance); Herbicide tolerance (relative to wild type) [23]: ++ (10-99 fold higher tolerance)

— patent US11219221B2 (FarmHannong Co., Ltd., priority 2017, dated 2022)
